Test results: patent US20120184744A1, “CRYSTALLINE HYDROCHLORIDE SALTS OF C-MET KINASE INHIBITORS” (priority 2009, published 2012)
Counter-ions that a name gives are not always drawn. Values belong to the compound of their own block, whether it stands above or below them.

Tests used:
Type in all cases: physicochemical
[1] = Crystal form conversion on exposure to relative humidity; details: room temperature
Excerpt: (§1) It rehydrates and converts back to the mono-HCl salt hydrate when exposed to higher than 75% relative humidity at room temperature. The mono-HCl salt anhydrate Form II can also convert to crystalline mono-HCl salt anhydrate Form I when slurried in Acetone:H2O co-solvent or other co-solvent systems with water activity below 0.57-0.60.
The 1.6-HCl salt anhydrate of Compound A is further characterized by reflections corresponding to d-spacings of 5.03, 4.30, and 4.14 angstroms. The 1.6-HCl salt anhydrate of Compound A is even further characterized by reflections corresponding to d-spacings of 3.93, 3.63, and 3.50 angstroms. The 1.6-HCl salt anhydrate converts to the 1.6-HCl salt hydrate upon exposure to 10-95% relative humidity at room temperature.

[2] = Solubility in 14.6 wt % IPA in DMF; details: organic solvent or mixture
Method: To prepare the mono-HCl salt anhydrate Form I of Compound A, dissolve 1.00 g of Compound A freebase monohydrate in 7.0 mL (6.65 g) DMF at 55° C. Next, charge 0.05 eq of HCl. Then, charge 0.25 wt % media-milled seed ([…] of API). The solubility of Compound A HCl seed in 14.6 wt % IPA in DMF is <2 mg/mL. Age seed bed for 1 hr. Next, charge 0.92 eq of HCl over 8 hrs (linear charge rate) holding batch at 55. No dispersion is required. Total HCl charge is 0.97 eq. Cool the batch from 55° C. to 22° C. over 1 hr. Hold batch at 22° C. for one hour, then filter.

[3] = Physical stability of the solid on storage under controlled temperature/relative humidity; details: for physical stability after storage: 5 months
[4] = Slurry experiment in organic solvent:H2O co-solvent (transition water activity, form conversion)
Method: This transition water activity was determined based on slurry experiment in Acetone:H2O, DMF:H2O and THF:H2O co-solvent. […] Crystalline mono-HCl salt hydrate dehydrates and converts to mono-HCl salt anhydrate Form II when exposed to low relative humidity or heated at high temperature.
as §1

SMILES: Cn1cc(-c2cnc3ccc4ccc(CS(=O)(=O)NCc5ccccn5)cc4c(=O)c3c2)cn1 [1.6-HCl salt anhydrate]
relative humidity at which it converts to the 1.6-HCl salt hydrate [1]: 10-95%

SMILES: Cn1cc(-c2cnc3ccc4ccc(CS(=O)(=O)NCc5ccccn5)cc4c(=O)c3c2)cn1 [Compound A HCl seed]
solubility [2]: < 2000 µg/mL

SMILES: Cn1cc(-c2cnc3ccc4ccc(CS(=O)(=O)NCc5ccccn5)cc4c(=O)c3c2)cn1 [mono-HCl salt hydrate]
transition water activity above which the mono-HCl salt hydrate is thermodynamically more stable than mono-HCl salt anhydrate Form I ([4]; room temperature or 40° C., slurry in Acetone:H2O, DMF:H2O and THF:H2O co-solvent): 0.57-0.60

Other lines, results leading:

physical stability after storage ([3]; 40° C./75% relative humidity): physically stable | physical stability after storage ([3]; room temperature/53% relative humidity): physically stable | physical stability after storage ([3]; room temperature/85% relative humidity): physically stable | solid conversion to the mono-HCl salt hydrate ([3]; solid state, on storage): has not been observed
SMILES: Cn1cc(-c2cnc3ccc4ccc(CS(=O)(=O)NCc5ccccn5)cc4c(=O)c3c2)cn1 [Form I]

water activity at which it converts to mono-HCl salt anhydrate Form I ([4]; slurried in Acetone:H2O co-solvent or other co-solvent systems): 0.57-0.60 | relative humidity at which it rehydrates and converts back to the mono-HCl salt hydrate [1]: higher than 75%
SMILES: Cn1cc(-c2cnc3ccc4ccc(CS(=O)(=O)NCc5ccccn5)cc4c(=O)c3c2)cn1 [mono-HCl salt anhydrate Form II]
